Data published in ChEMBL document CHEMBL1144487 (Bioorg Med Chem, 2007).

What was measured:
[1] = Cytotoxicity against rat H-ras transformed NRK H/1.2 cells after 5 days; assay type: cell-based; conditions: NRK H/1.2, 120 h, read-out: LC50 (the source's name)
[2] = Cytotoxicity against rat N-ras transformed NRK N/4.2 cells after 5 days; assay type: cell-based; conditions: NRK N/4.2, 120 h, read-out: LC50 (the source's name)
[3] = Cytotoxicity against rat K-ras transformed NRK K/1 cells after 5 days; assay type: cell-based; conditions: NRK K/1, 120 h, read-out: LC50 (the source's name)
[4] = Cytotoxicity against mouse 3LL cells after 5 days; assay type: cell-based; conditions: 120 h, read-out: LC50 (the source's name)
[5] = Toxicity in mouse; assay type: organism-based; conditions: in vivo
[6] = Cytotoxicity against rat NRK 52E cells after 5 days; assay type: cell-based; conditions: read-out: LC50
[7] = Differential index, LC50 for rat NRK 52E cells to LC50 for rat H-ras transformed NRK H/1.2 cells; assay type: ADME, cell-based; conditions: NRK 52E cells versus H-ras transformed NRK H/1.2 cells
[8] = tested on: NRK; assay: Inhibition of tumor growth in CD1 nu/nu mouse implanted with rat K-ras transformed NRK K/1 cells at 150 mg/kg/day, ip after 8 days relative to control; assay type: functional; conditions: 192 h, route intraperitoneal
[9] = tested on: Mus musculus; assay: Toxicity in nude mouse at 150 mg/kg/day assessed as death after 8 days; assay type: organism-based; conditions: in vivo, 192 h
[10] = Differential index, LC50 for rat NRK 52E cells to LC50 for rat K-ras transformed NRK K/1 cells; assay type: ADME, cell-based; conditions: NRK 52E cells versus K-ras transformed NRK K/1 cells
[11] = tested on: Mus musculus; assay: Toxicity in nude mouse at 300 mg/kg/day assessed as death after 8 days; assay type: organism-based; conditions: in vivo, 192 h
[12] = Differential index, LC50 for rat NRK 52E cells to LC50 for mouse 3LL cells; assay type: ADME, cell-based; conditions: NRK 52E cells versus 3LL cells
[13] = Differential index, LC50 for rat NRK 52E cells to LC50 for rat N-ras transformed NRK N/4.2 cells; assay type: ADME, cell-based; conditions: NRK 52E cells versus N-ras transformed NRK N/4.2 cells
[14] = tested on: NRK; assay: Inhibition of tumor growth in CD1 nu/nu mouse implanted with rat K-ras transformed NRK K/1 cells at 300 mg/kg/day, ip after 8 days relative to control; assay type: functional; conditions: 192 h, route intraperitoneal
[15] = tested on: Mus musculus; assay: Toxicity in nude mouse at 100 mg/kg/day after 7 days; assay type: organism-based; conditions: in vivo, 168 h
[16] = tested on: NRK; assay: Inhibition of tumor growth in CD1 nu/nu mouse implanted with rat K-ras transformed NRK K/1 cells at 100 mg/kg/day, ip for 7 days on day 10 relative to control; assay type: functional; conditions: route intraperitoneal
[17] = tested on: Mus musculus; assay: Toxicity in nude mouse at 10 mg/kg/day after 7 days; assay type: organism-based; conditions: in vivo, 168 h
[18] = tested on: Mus musculus; assay: Toxicity in nude mouse at 50 mg/kg/day after 7 days; assay type: organism-based; conditions: in vivo, 168 h

SMILES: CCCC(=O)NC1=CC(=O)c2ccc(C)nc2C1=O
- CC50 [1]: > 3300 nM
- CC50 [2]: > 3300 nM
- CC50 [3]: > 3300 nM
- CC50 [4]: 2500 nM
- MTD [5]: < 10 mg/kg
- CC50 at 120 h [6]: 2000 nM

SMILES: CC(=O)NC1=CC(=O)c2ccc(-c3nc(C(=O)OCCC(C)C)cc4c3[nH]c3ccccc34)nc2C1=O
- CC50 [1]: 1420 nM
- CC50 [2]: 1500 nM
- CC50 [3]: 90 nM
- selectivity ratio [7]: 1.1
- inhibition in vivo at 150 mg/kg/day [8]: 88%
- Activity [9]: Non-toxic
- CC50 [4]: 1690 nM
- selectivity ratio [10]: 18
- Activity [11]: Non-toxic
- selectivity ratio [12]: 1
- selectivity ratio [13]: 1.1
- CC50 at 120 h [6]: 1620 nM

SMILES: NC1=CC(=O)c2ccc(-c3[nH]ccc4c5ccccc5nc3-4)nc2C1=O [DECARBOXYDEMETHYLLAVENDAMYCIN]
- CC50 [1]: 110 nM
- CC50 [2]: 60 nM
- CC50 [3]: 31 nM
- selectivity ratio [7]: 0.9
- CC50 [4]: 250 nM
- selectivity ratio [10]: 3.2
- selectivity ratio [12]: 0.4
- MTD [5]: 400 mg/kg
- selectivity ratio [13]: 1.6
- CC50 at 120 h [6]: 100 nM

SMILES: CC(=O)NC1=CC(=O)c2ccc(-c3[nH]c(C(N)=O)cc4c5ccccc5nc3-4)nc2C1=O
- CC50 [1]: 230 nM
- CC50 [2]: 220 nM
- CC50 [3]: 350 nM
- CC50 [4]: 210 nM
- selectivity ratio [10]: 2.5
- selectivity ratio [12]: 4.3
- MTD [5]: 400 mg/kg
- selectivity ratio [13]: 4.1
- CC50 at 120 h [6]: 900 nM

SMILES: COC(=O)c1cc2c([nH]c3ccccc32)c(-c2ccc3c(n2)C(=O)C(NC(C)=O)=CC3=O)n1
- CC50 [1]: 510 nM
- CC50 [2]: 520 nM
- CC50 [3]: 110 nM
- selectivity ratio [7]: 1
- CC50 [4]: 840 nM
- selectivity ratio [10]: 4.5
- selectivity ratio [12]: 0.6
- selectivity ratio [13]: 1
- CC50 at 120 h [6]: 500 nM

SMILES: CCOC(=O)c1cc2c([nH]c3ccccc32)c(-c2ccc3c(n2)C(=O)C(NC(C)=O)=CC3=O)n1
- CC50 [1]: 360 nM
- CC50 [2]: 200 nM
- CC50 [3]: 40 nM
- selectivity ratio [7]: 0.8
- CC50 [4]: 3200 nM
- selectivity ratio [10]: 7.5
- selectivity ratio [12]: 0.1
- selectivity ratio [13]: 0.7
- CC50 at 120 h [6]: 300 nM

SMILES: CC(=O)NC1=CC(=O)c2ccc(C)nc2C1=O
- CC50 [1]: 4400 nM
- CC50 [3]: 5900 nM
- CC50 [4]: 2000 nM
- MTD [5]: < 10 mg/kg
- CC50 at 120 h [6]: 2400 nM

SMILES: CCCC(=O)NC1=CC(=O)c2ccc(C=O)nc2C1=O
- CC50 [1]: 3300 nM
- CC50 [2]: > 3300 nM
- CC50 [3]: > 3300 nM
- CC50 [4]: 2500 nM
- MTD [5]: < 10 mg/kg
- CC50 at 120 h [6]: 3000 nM

SMILES: CC(=O)NC1=CC(=O)c2ccc(-c3[nH]c(CO)cc4c5ccccc5nc3-4)nc2C1=O
- CC50 [1]: 200 nM
- CC50 [2]: 220 nM
- CC50 [3]: 200 nM
- selectivity ratio [7]: 1.2
- CC50 [4]: 440 nM
- selectivity ratio [10]: 1.2
- selectivity ratio [12]: 0.6
- selectivity ratio [13]: 1.1
- CC50 at 120 h [6]: 250 nM

SMILES: CC(=O)NC1=CC(=O)c2ccc(-c3nc(C(=O)OC4CCCCC4)cc4c3[nH]c3ccccc34)nc2C1=O
- CC50 [1]: 690 nM
- CC50 [2]: 700 nM
- CC50 [3]: 400 nM
- selectivity ratio [7]: 1
- CC50 [4]: 1000 nM
- selectivity ratio [10]: 1.7
- selectivity ratio [12]: 0.7
- selectivity ratio [13]: 1
- CC50 at 120 h [6]: 700 nM

SMILES: CCCCOC(=O)c1cc2c([nH]c3ccc(F)cc32)c(-c2ccc3c(n2)C(=O)C(NC(C)=O)=CC3=O)n1
- CC50 [1]: 700 nM
- CC50 [2]: 840 nM
- CC50 [3]: 330 nM
- selectivity ratio [7]: 0.9
- CC50 [4]: 2100 nM
- selectivity ratio [10]: 1.9
- selectivity ratio [12]: 0.3
- selectivity ratio [13]: 0.8
- CC50 at 120 h [6]: 620 nM

SMILES: COC(=O)c1nc(-c2ccc3c(n2)C(=O)C(NC(=O)CCl)=CC3=O)c2[nH]c3ccccc3c2c1C
- CC50 [1]: 580 nM
- CC50 [2]: 700 nM
- CC50 [3]: 790 nM
- selectivity ratio [7]: 1
- CC50 [4]: 2000 nM
- selectivity ratio [10]: 0.7
- selectivity ratio [12]: 0.3
- selectivity ratio [13]: 0.8
- CC50 at 120 h [6]: 580 nM

SMILES: CCCCCCCCOC(=O)c1cc2c([nH]c3ccccc32)c(-c2ccc3c(n2)C(=O)C(NC(C)=O)=CC3=O)n1
- CC50 [1]: 7600 nM
- CC50 [2]: 9000 nM
- CC50 [3]: 250 nM
- selectivity ratio [7]: > 4.3
- Activity [9]: Non-toxic
- CC50 [4]: > 33000 nM
- inhibition in vivo at 300 mg/kg/day [14]: 78%
- selectivity ratio [10]: > 132
- Activity [11]: Non-toxic
- selectivity ratio [13]: 3.6
- CC50 at 120 h [6]: > 33000 nM

SMILES: COC(=O)c1[nH]c(-c2ccc3c(n2)C(=O)C(NC(C)=O)=CC3=O)c2nc3ccccc3c-2c1C
- CC50 [1]: 700 nM
- CC50 [3]: 100 nM
- Activity [15]: Non-toxic
- selectivity ratio [7]: 1.3
- inhibition in vivo at 100 mg/kg/day [16]: 69%
- Activity [17]: Non-toxic
- CC50 [4]: > 33000 nM
- Activity [18]: Non-toxic
- selectivity ratio [10]: 9
- selectivity ratio [12]: < 0.03
- CC50 at 120 h [6]: 900 nM

SMILES: CC(=O)NC1=CC(=O)c2ccc(-c3nc(C(=O)OCCN(C)C)cc4c3[nH]c3ccccc34)nc2C1=O
- CC50 [1]: 240 nM
- CC50 [2]: 290 nM
- CC50 [3]: 140 nM
- selectivity ratio [7]: 1.5
- CC50 [4]: 500 nM
- selectivity ratio [10]: 2.6
- selectivity ratio [12]: 0.7
- selectivity ratio [13]: 1.3
- CC50 at 120 h [6]: 370 nM
